Reference: the NIST ThermoML archive (doi:10.1021/je400252p)

What was measured:
[1] = for mass density / viscosity: 101.33 kPa; for mass density / surface tension liquid-gas / viscosity: Liquid; for mass density: Vibrating tube method; for surface tension liquid-gas: Ring tensiometer
[2] = Molar enthalpy of transition or fusion; conditions: Crystal; DSC
[3] = refractive index (Na D-line) (dimensionless); conditions: 313 K; 101.33 kPa; Liquid; Standard Abbe refractometry

CCCCCC[N+]12CCN(CC1)CC2.O=S(=O)([N-]S(=O)(=O)C(F)(F)F)C(F)(F)F
[1]
Conditions	mass density [kg/m3]	surface tension liquid-gas [mN/m]	viscosity [mPa·s]
313.15 K	1355.15	35.62	–
318.15 K	1350.93	35.33	190.8
323.15 K	1346.72	35.05	138.1
328.15 K	1342.51	34.83	107
333.15 K	1338.29	34.51	87.6

[1], DTA
Conditions	Glass transition temperature [°C]	Normal melting temperature [°C]
Crystal	–	36
Glass	-51	–

Conditions	Molar enthalpy of transition or fusion [kcal/mol]	refractive index
[2]	2.63	–
[3]	–	1.4379
